According to patent US20160194299A1 (priority 2013, published 2016):
In brackets after ≈: the same amount, converted by molar mass. Read-outs that look alike come from different tables or passages of the source.

Columns and labels:
Mtb [1] = experiment: microbe, parasite or virus in culture; assay type: cell-based, Mycobacterium tuberculosis; conditions: Mycobacterium tuberculosis, read-out: MIC (I)
Mtb [2] = experiment: microbe, parasite or virus in culture; assay type: cell-based, Mycobacterium tuberculosis; conditions: Mycobacterium tuberculosis, read-out: MIC (III)
in vitro = conditions: African green monkey

Structure (SMILES)	MIC (Mtb [1]) [µg/mL]	MIC (Mtb [2]) [µg/mL]	CC50 (in vitro) [µg/mL]
CC(C)OC(=O)NC(=O)c1cc(F)sc1NC(=O)c1cnc2ccnn2c1 [Compound 316]	1 to 3 (≈ 2.56 to 7.67 µM)	> 25	25 to 50 (≈ 63.9 to 128 µM)
CCOC(=O)NC(=O)c1ccsc1NC(=O)c1ccnc(NC(=O)CN2CCOCC2)c1 [Compound 46]	< 1	> 25	> 50
CCOC(=O)NC(=O)c1ccsc1NC(=O)c1csc(-c2ccccn2)n1 [Compound 133]	> 3	> 25	> 50
CCOC(=O)NC(=O)c1ccsc1NC(=O)c1cc(O)ncn1 [Compound 147]	> 3	> 25	> 50
CCOC(=O)NC(=O)c1cc(CC(C(=O)OCC)C(=O)OCC)sc1NC(=O)c1nc2cnccc2s1 [Compound 278]	> 3	> 25	> 50
CCOC(=O)NC(=O)c1ccsc1NC(=O)c1ccc2c(c1)CCO2 [Compound 132]	> 3	5 to 25 (≈ 13.9 to 69.4 µM)	> 50
CCOC(=O)NC(=O)c1cc(CC(=O)O)sc1NC(=O)c1nc2cnccc2s1 [Compound 308]	> 3	> 25	< 25
CCOC(=O)NC(=O)c1ccsc1NC(=O)c1cc(C(F)(F)F)nc2ccccc12 [Compound 117]	> 3	> 25	< 25
O=C(NC(=O)c1ccsc1NC(=O)c1nc2cnccc2s1)OCc1cccnc1 [Compound 301]	> 3	> 25	25 to 50 (≈ 56.9 to 114 µM)
CC(C)OC(=O)NC(=O)c1cc(F)sc1NC(=O)c1ccn2nccc2c1 [Compound 346]	1 to 3 (≈ 2.56 to 7.68 µM)	> 25	< 25
CCOC(=O)NC(=O)c1ccsc1NC(=O)C1=NNC(=O)CC1 [Compound 64]	< 1	< 5	> 50
O=C(NC(=O)c1ccsc1NC(=O)c1nc2cnccc2s1)OCc1ccc(F)cc1 [Compound 275]	> 3	> 25	25 to 50 (≈ 54.8 to 110 µM)
CCOC(=O)NC(=O)c1ccsc1NC(=O)c1cc2ccncc2s1 [Compound 329]	< 1	> 25	< 25
CCOC(=O)NC(=O)c1ccsc1NC(=O)c1csc(C(F)(F)F)n1 [Compound 131]	> 3	5 to 25 (≈ 12.7 to 63.6 µM)	< 25
CCOC(=O)NC(=O)c1ccsc1NC(=O)c1cc2cnccc2s1 [Compound 334]	< 1	> 25	> 50
CCOC(=O)NC(=O)c1ccsc1NC(=O)c1ccnc(NC(=O)N2CCC(F)(F)CC2)c1 [Compound 50]	< 1	> 25	25 to 50 (≈ 51.9 to 104 µM)
CCOC(=O)NC(=O)c1ccsc1NC(=O)c1cnc2c(-c3ccc(OC)cc3)cnn2c1 [Compound 299]	< 1	> 25	< 25
CCOC(=O)NC(=O)c1ccsc1NC(=O)c1ccc(=O)n(C)c1 [Compound 140]	> 3	5 to 25 (≈ 14.3 to 71.6 µM)	> 50
CCOC(=O)NC(=O)c1ccsc1NC(=O)c1ccnc(NC(=O)N2CCOCC2)c1 [Compound 33]	< 1	> 25	> 50
COCCOC(=O)NC(=O)c1ccsc1NC(=O)c1nc2ccccc2s1 [Compound 18]	< 1	> 25	> 50
O=C(NC(=O)c1ccsc1NC(=O)c1nc2ccccc2s1)OCc1ccccc1C(F)(F)F [Compound 294]	> 3	> 25	25 to 50 (≈ 49.5 to 98.9 µM)
CCOC(=O)NC(=O)c1ccsc1NC(=O)c1nc2cnc(C)cc2s1 [Compound 94]	< 1	> 25	> 50
COCCOC(=O)NC(=O)c1ccsc1NC(=O)c1cn2ccccc2n1 [Compound 373]	> 3	> 25	25 to 50 (≈ 64.4 to 129 µM)
CCOC(=O)NC(=O)c1ccsc1NC(=O)C1=Cc2ccccc2OC1 [Compound 67]	< 1	< 5	> 50
CCN1CCN(C(=O)c2ccsc2NC(=O)c2nc3ccccc3s2)CC1 [Compound 257]	> 3	5 to 25 (≈ 12.5 to 62.4 µM)	25 to 50 (≈ 62.4 to 125 µM)

Structure (SMILES)	MIC (Mtb [1]) [µg/mL]	MIC (Mtb [2]) [µg/mL]	CC50 (in vitro) [µg/mL]
CCOC(=O)NC(=O)c1ccsc1NC(=O)c1cnc2ccsc2c1 [Compound 394]	< 1	> 25	< 25
O=C(NC(=O)c1ccsc1NC(=O)c1nc2cnccc2s1)OC1CCOC1 (stereo not drawn) [Compound 102]	< 1	< 5	> 50
O=C(NC(=O)c1ccsc1NC(=O)c1cnc2ccnn2c1)OCc1ccc(F)cc1 [Compound 284]	> 3	> 25	25 to 50 (≈ 56.9 to 114 µM)
CCOC(=O)NC(=O)c1ccsc1NC(=O)c1cnc2cc(C)nn2c1C [Compound 65]	< 1	< 5	> 50
CCOC(=O)N(C)C(=O)c1ccsc1NC(=O)c1cn2ccccc2n1 [Compound 377]	> 3	> 25	25 to 50 (≈ 67.1 to 134 µM)
CC(C)OC(=O)NC(=O)c1ccsc1NC(=O)c1cc2ncccn2n1 [Compound 340]	< 1	> 25	25 to 50 (≈ 67 to 134 µM)
CC(C)COC(=O)NC(=O)c1ccsc1NC(=O)c1nc2ccccc2s1 [Compound 281]	< 1	> 25	25 to 50 (≈ 62 to 124 µM)
C=CCOC(=O)NC(=O)c1ccsc1NC(=O)c1nc2ccccc2s1 [Compound 293]	< 1	< 5	< 25
CCOC(=O)NC(=O)c1ccsc1NC(=O)c1ccnc(NC(=O)C(C)(C)C)n1 [Compound 118]	> 3	5 to 25 (≈ 11.9 to 59.6 µM)	> 50
CC(C)OC(=O)NC(=O)c1ccsc1NC(=O)c1cnc2ccoc2c1 [Compound 354]	> 3	> 25	25 to 50 (≈ 67 to 134 µM)
CCOC(=O)NC(=O)c1ccsc1NC(=O)c1ccc2cccnc2c1 [Compound 63]	< 1	5 to 25 (≈ 13.5 to 67.7 µM)	> 50
CCOC(=O)NC(=O)c1ccsc1NC(=O)c1cnc2c(N3CCOCC3)cnn2c1 [Compound 315]	< 1	> 25	25 to 50 (≈ 56.2 to 112 µM)
CC(C)OC(=O)NC(=O)c1cc(F)sc1NC(=O)c1nc2ccccc2s1 [Compound 342]	< 1	5 to 25 (≈ 12.3 to 61.4 µM)	25 to 50 (≈ 61.4 to 123 µM)
CCOC(=O)NC(=O)c1ccsc1NC(=O)c1nc2c(s1)CCN(C)C2 [Compound 85]	1 to 3 (≈ 2.53 to 7.6 µM)	< 5	> 50
CC(C)OC(=O)NC(=O)c1cc(F)sc1NC(=O)c1nc2cccnc2s1 [Compound 344]	< 1	> 25	25 to 50 (≈ 61.2 to 122 µM)
CCOC(=O)NC(=O)c1cc(F)sc1NC(=O)c1nc2cnccc2s1 [Compound 337]	< 1	> 25	25 to 50 (≈ 63.4 to 127 µM)
CCOC(=O)NC(=O)c1ccsc1NC(=O)c1noc(C)n1 [Compound 74]	> 3	> 25	25 to 50 (≈ 77.1 to 154 µM)
CN(C)C(=O)NC(=O)c1ccsc1NC(=O)c1cn2ccccc2n1 [Compound 383]	> 3	> 25	< 25
CCOC(=O)NC(=O)c1ccsc1NC(=O)c1nc2cccnc2s1 [Compound 83]	< 1	< 5	> 50
CCOC(=O)NC(=O)c1ccsc1NC(=O)c1cn2ncccc2n1 [Compound 93]	< 1	< 5	> 50
CCOC(=O)NC(=O)c1ccsc1NC(=O)c1sc(-c2cccnc2)nc1C [Compound 136]	> 3	> 25	> 50
CCOC(=O)NC(=O)c1ccsc1NC(=O)c1ccnc2ccc(OC)cc12 [Compound 123]	> 3	5 to 25 (≈ 12.5 to 62.6 µM)	> 50
CCOC(=O)NC(=O)c1ccsc1NC(=O)c1cnc2ccccn12 [Compound 142]	> 3	> 25	25 to 50 (≈ 69.8 to 140 µM)
O=C(NC(=O)c1ccsc1NC(=O)c1nc2cnccc2s1)OC1CCCC1 [Compound 380]	< 1	> 25	< 25
